The values below come from PMC10892423 (Pharmaceutics, 2024).

The subject of assay [1] is MBL-producing P. aeruginosa clinical isolates. Nature of the assay: Broth microdilution checkerboard synergy assay (MIC of ATM in combination). It is filed as cell-based, Pseudomonas aeruginosa. The conditions noted are these: four representative MBL-producing P. aeruginosa strains (Table 2).
The target in a further assay is T1, AmpC (Escherichia coli, UniProt P00811).
T1 construct: made in house
Nature of the assay: β-lactamase inhibition, nitrocefin hydrolysis. Type of assay: biochemical. From the text:
(§1) Recombinant AmpC from Escherichia coli was produced according to a previously reported protocol. KPC-2 and NDM-1 […] were purchased from LifeSpan Biosciences, Inc. (Lynnwood, WA, USA) (LS-G26598) and RayBiotech, Inc. (Peachtree Corners, GA, USA) (230-00554), respectively. Genes encoding OXA-48 (residues 23–265) and VIM-2 (residues 27–266) were custom-synthesized (Bioneer Inc., Seoul, Republic of Korea) and expressed as previously described. The β-lactamase inhibitory activity of the title compounds was then determined according to the previously reported methods. Briefly, equal volumes (100 μL) of the title compounds (70–0.1 μM in PBS) and diluted enzyme stock were mixed (final concentration 2% of DMSO in 200 μL) in 96-well plates, which were then incubated at 37 °C for 20 min. The incubated mixture was added to each well containing substrates (nitrocefin for AmpC, KPC-2, OXA-48, and VIM-2; and imipenem for NDM-1) of final concentrations of 70 μM for nitrocefin and 100 μM for imipenem. Substrate hydrolysis was monitored at 486 nm (nitrocefin) or 300 nm (imipenem) for 15 min, using a Cytation 5 imaging multimode reader (BioTek Instruments Inc., Winooski, VT, USA). At the plateau level of hydrolysis, the corresponding rates of hydrolysis were compared to those obtained without inhibitors (100%) to determine the percentage of enzyme inhibition at each concentration of the title compounds. The IC50 values of the compounds were derived from sigmoidal dose–response curves, using GraphPad Prism 5 (GraphPad Software, Boston, MA, USA).

For another assay, the target named is T2, KPC-2 (Klebsiella pneumoniae, UniProt Q9F663).
T2 construct: purchased LifeSpan Biosciences, Inc. LS-G26598
Nature of the assay: β-lactamase inhibition, nitrocefin hydrolysis. Type of assay: biochemical.
From the text: as §1

The target of a further assay is T3, OXA-48 (Klebsiella pneumoniae, UniProt Q6XEC0).
T3 construct: Genes encoding OXA-48 (residues 23–265) and VIM-2 (residues 27–266) were custom-synthesized; made in house
Nature of the assay: β-lactamase inhibition, nitrocefin hydrolysis. Type of assay: biochemical.
From the text: as §1

Another assay has as its target T4, VIM-2 (Escherichia coli, UniProt Q5U7L7).
T4 construct: Genes encoding OXA-48 (residues 23–265) and VIM-2 (residues 27–266) were custom-synthesized; made in house
Nature of the assay: β-lactamase inhibition, nitrocefin hydrolysis. Type of assay: biochemical.
From the text: as §1

The target in another assay is T5, NDM-1 (Klebsiella pneumoniae, UniProt C7C422).
T5 construct: purchased RayBiotech, Inc. 230-00554
Nature of the assay: β-lactamase inhibition, imipenem hydrolysis. Type of assay: biochemical.
From the text: as §1

The mark [2] stands for this setting: nitrocefin substrate, read-out: β-Lactamases, IC50 KPC-2.
The mark [3] stands for this setting: nitrocefin substrate, read-out: β-Lactamases, IC50 OXA-48.
Where [4] appears, read: nitrocefin substrate, read-out: β-Lactamases, IC50 VIM-2.
The mark [5] stands for this setting: imipenem substrate, read-out: β-Lactamases, IC50 NDM-1.

Molecules are shown by their SMILES. Like-named read-outs stand apart in the source and are kept apart here. A value given as a limit tells only on which side of the number the result lay.

T5 sequence (C7C422 29-270, looked up, species assumed): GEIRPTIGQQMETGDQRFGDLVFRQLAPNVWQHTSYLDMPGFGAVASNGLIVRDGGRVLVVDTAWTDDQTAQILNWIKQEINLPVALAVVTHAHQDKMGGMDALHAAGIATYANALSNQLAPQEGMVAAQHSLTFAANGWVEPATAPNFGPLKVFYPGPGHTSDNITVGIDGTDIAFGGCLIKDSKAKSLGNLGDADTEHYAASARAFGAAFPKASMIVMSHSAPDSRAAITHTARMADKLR
T1 sequence (P00811 20-377): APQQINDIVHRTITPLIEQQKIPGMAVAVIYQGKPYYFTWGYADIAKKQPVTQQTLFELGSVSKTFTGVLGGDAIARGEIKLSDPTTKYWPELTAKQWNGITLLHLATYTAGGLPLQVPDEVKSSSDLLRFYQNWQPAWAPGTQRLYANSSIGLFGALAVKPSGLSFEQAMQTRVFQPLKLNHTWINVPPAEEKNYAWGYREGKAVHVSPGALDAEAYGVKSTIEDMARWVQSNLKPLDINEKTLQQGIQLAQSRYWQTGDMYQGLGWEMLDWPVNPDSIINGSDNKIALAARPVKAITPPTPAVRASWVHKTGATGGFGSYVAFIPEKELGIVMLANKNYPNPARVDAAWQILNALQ
T3 sequence (Q6XEC0 23-265 limits assumed): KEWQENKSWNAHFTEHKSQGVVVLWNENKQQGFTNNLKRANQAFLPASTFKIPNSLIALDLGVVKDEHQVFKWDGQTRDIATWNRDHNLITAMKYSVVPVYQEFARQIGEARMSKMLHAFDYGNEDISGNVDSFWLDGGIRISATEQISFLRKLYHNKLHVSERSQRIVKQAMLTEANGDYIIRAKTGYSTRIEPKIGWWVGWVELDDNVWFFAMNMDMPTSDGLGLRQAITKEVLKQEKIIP
T2 sequence (Q9F663 25-293, looked up): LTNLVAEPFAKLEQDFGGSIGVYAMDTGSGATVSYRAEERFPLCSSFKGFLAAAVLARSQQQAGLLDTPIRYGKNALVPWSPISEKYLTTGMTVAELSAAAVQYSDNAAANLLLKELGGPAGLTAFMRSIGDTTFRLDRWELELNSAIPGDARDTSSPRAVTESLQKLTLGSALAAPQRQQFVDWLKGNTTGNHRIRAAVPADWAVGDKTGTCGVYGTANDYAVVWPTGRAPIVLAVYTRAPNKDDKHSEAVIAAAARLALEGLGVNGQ

Regarding `NC(=O)[C@@H]1CC[C@@H]2CN1C(=O)N2OS(=O)(=O)O` [AVI, avibactam], the “concentration at which ATM-potentiating activity was observed” value in assay [1] worked out at 128 mg/L.

One may read the IC50 as the concentration needed to halve the response being measured. As for `CC(C)(C)CC(=O)Oc1c(-c2ccc(F)c(F)c2)oc2cc(O)cc(O)c2c1=O` [Compound 3], the IC50 against AmpC is 19.2 µM; on KPC-2 (setting [2]), 22.2 µM; on OXA-48 (setting [3]), 21.2 µM; on VIM-2 (setting [4]), 20.3 µM; on NDM-1 (setting [5]) it was 24.6 µM.

On to `CC(C)(C)C(=O)OCOc1c(-c2ccc(F)c(F)c2)oc2cc(O)cc(O)c2c1=O` [Compound 4], for which the IC50 on AmpC was 25.4 µM; on KPC-2 (setting [2]) it was 33.2 µM; on OXA-48 (setting [3]), 28.7 µM; at VIM-2 (setting [4]) it was 19.3 µM; at NDM-1 (setting [5]), 15.7 µM.

For the compound `CC(C)OC(=O)OCOc1c(-c2ccc(F)c(F)c2)oc2cc(O)cc(O)c2c1=O` [Compound 5], the IC50 was above 50 µM against AmpC; above 50 µM on KPC-2 (setting [2]); 42.7 µM at OXA-48 (setting [3]); above 100 µM at VIM-2 (setting [4]); above 50 µM at NDM-1 (setting [5]).

With `CC(C)(C)c1ccc(COc2c(-c3ccc(F)c(F)c3)oc3cc(O)cc(O)c3c2=O)cc1` [Compound 6], the IC50 against AmpC was above 50 µM; on KPC-2 (setting [2]) it was above 50 µM; at OXA-48 (setting [3]), 37.8 µM; at VIM-2 (setting [4]) it was above 100 µM; at NDM-1 (setting [5]), 14.1 µM.

In the case of `CC(C)c1ccc(COc2c(-c3ccc(F)c(F)c3)oc3cc(O)cc(O)c3c2=O)cc1` [Compound 7], the IC50 was above 50 µM on AmpC; 21.5 µM on KPC-2 (setting [2]); 6 µM on OXA-48 (setting [3]); 13.1 µM on VIM-2 (setting [4]); 16.7 µM at NDM-1 (setting [5]).

`O=c1c(OCCO)c(-c2ccc(F)c(F)c2)oc2cc(O)cc(O)c12` [Compound 8]: the IC50 is above 50 µM at AmpC; above 50 µM on KPC-2 (setting [2]); above 100 µM at OXA-48 (setting [3]); above 100 µM at VIM-2 (setting [4]); above 50 µM at NDM-1 (setting [5]).

`O=c1c(OCCOCCO)c(-c2ccc(F)c(F)c2)oc2cc(O)cc(O)c12` [Compound 9]: the IC50 was above 50 µM against AmpC; above 50 µM at KPC-2 (setting [2]); above 100 µM at OXA-48 (setting [3]); above 100 µM on VIM-2 (setting [4]); above 50 µM on NDM-1 (setting [5]).

Turning to `O=c1c(OCCOCCOCCO)c(-c2ccc(F)c(F)c2)oc2cc(O)cc(O)c12` [Compound 10], the IC50 on AmpC is above 50 µM; at KPC-2 (setting [2]), above 50 µM; on OXA-48 (setting [3]) it was above 100 µM; on VIM-2 (setting [4]), above 100 µM; on NDM-1 (setting [5]), above 50 µM.

For `NCCOCCOc1c(-c2ccc(F)c(F)c2)oc2cc(O)cc(O)c2c1=O` [Compound 11], the IC50 was above 50 µM against AmpC; above 50 µM on KPC-2 (setting [2]); above 100 µM on OXA-48 (setting [3]); above 100 µM at VIM-2 (setting [4]); above 50 µM at NDM-1 (setting [5]).

Consider `O=c1c(OCCc2cccs2)c(-c2ccc(F)c(F)c2)oc2cc(O)cc(O)c12` [Compound 12], for which the IC50 on AmpC was above 50 µM; on KPC-2 (setting [2]), above 50 µM; on OXA-48 (setting [3]), above 100 µM; at VIM-2 (setting [4]), above 100 µM; at NDM-1 (setting [5]), above 50 µM.

Consider `CN(C)CCOc1c(-c2ccc(F)c(F)c2)oc2cc(O)cc(O)c2c1=O` [Compound 13], for which the IC50 at AmpC was above 50 µM; on KPC-2 (setting [2]), above 50 µM; at OXA-48 (setting [3]), above 100 µM; on VIM-2 (setting [4]), above 100 µM; at NDM-1 (setting [5]) it was above 50 µM.

With `O=c1c(OCCN2CC2)c(-c2ccc(F)c(F)c2)oc2cc(O)cc(O)c12` [Compound 14], the concentration for half-maximal inhibition (IC50) is above 50 µM at AmpC; above 50 µM against KPC-2; above 100 µM against OXA-48; above 100 µM against VIM-2; above 50 µM at NDM-1.

For the compound `C[N+](C)(CCOc1c(-c2ccc(F)c(F)c2)oc2cc(O)cc(O)c2c1=O)CC(=O)[O-]` [Compound 15], the IC50 against AmpC is above 50 µM; at KPC-2 (setting [2]), above 50 µM; on OXA-48 (setting [3]) it was above 100 µM; at VIM-2 (setting [4]), above 100 µM; on NDM-1 (setting [5]), above 50 µM.

For the compound `CN1CCN(CCOc2c(-c3ccc(F)c(F)c3)oc3cc(O)cc(O)c3c2=O)CC1` [Compound 16], the IC50 against AmpC was above 50 µM; on KPC-2 (setting [2]), above 50 µM; on OXA-48 (setting [3]) it was above 100 µM; on VIM-2 (setting [4]), above 100 µM; at NDM-1 (setting [5]), above 50 µM.

On to `O=c1c(OCCN2CCNCC2)c(-c2ccc(F)c(F)c2)oc2cc(O)cc(O)c12` [Compound 17], for which the IC50 against AmpC was above 50 µM; at KPC-2 (setting [2]) it was above 50 µM; at OXA-48 (setting [3]), above 100 µM; on VIM-2 (setting [4]), above 100 µM; at NDM-1 (setting [5]) it was above 50 µM.

With `O=c1c(OCCN2CCCC2)c(-c2ccc(F)c(F)c2)oc2cc(O)cc(O)c12` [Compound 18], the IC50 against AmpC is above 50 µM; on KPC-2 (setting [2]) it was above 50 µM; on OXA-48 (setting [3]), above 100 µM; on VIM-2 (setting [4]), above 100 µM; at NDM-1 (setting [5]), above 50 µM.

`O=c1c(OCCN2CCCCC2)c(-c2ccc(F)c(F)c2)oc2cc(O)cc(O)c12` [Compound 19]: the IC50 against AmpC was above 50 µM; at KPC-2 (setting [2]), above 50 µM; on OXA-48 (setting [3]), above 100 µM; at VIM-2 (setting [4]), above 100 µM; at NDM-1 (setting [5]) it was above 50 µM.

As for `O=c1c(OCCN2CCOCC2)c(-c2ccc(F)c(F)c2)oc2cc(O)cc(O)c12` [Compound 20], the IC50 on AmpC is above 50 µM; at KPC-2 (setting [2]), above 50 µM; on OXA-48 (setting [3]), above 100 µM; on VIM-2 (setting [4]), above 100 µM; on NDM-1 (setting [5]), above 50 µM.

For `CN1CCCC1CCOc1c(-c2ccc(F)c(F)c2)oc2cc(O)cc(O)c2c1=O` (centres unmarked) [Compound 21], the IC50 against AmpC is above 50 µM; at KPC-2 (setting [2]), above 50 µM; at OXA-48 (setting [3]) it was above 100 µM; at VIM-2 (setting [4]), above 100 µM; at NDM-1 (setting [5]) it was above 50 µM.

As for `O=c1c(OCCC(F)(F)F)c(-c2ccc(F)c(F)c2)oc2cc(O)cc(O)c12` [Compound 22], the IC50 at AmpC was above 50 µM; on KPC-2 (setting [2]), above 50 µM; on OXA-48 (setting [3]), 39.8 µM; on VIM-2 (setting [4]) it was above 100 µM; on NDM-1 (setting [5]), above 50 µM.

Turning to `CC(C)CCOc1c(-c2ccc(F)c(F)c2)oc2cc(O)cc(O)c2c1=O` [Compound 24], the IC50 against AmpC was above 50 µM; at KPC-2 (setting [2]) it was 39.4 µM; at OXA-48 (setting [3]) it was 19.1 µM; at VIM-2 (setting [4]) it was 42.1 µM; at NDM-1 (setting [5]), above 50 µM.

Regarding `O=c1c(OCCC2CC2)c(-c2ccc(F)c(F)c2)oc2cc(O)cc(O)c12` [Compound 25], the IC50 on AmpC is above 50 µM; at KPC-2 (setting [2]), 22.8 µM; on OXA-48 (setting [3]), 11.4 µM; at VIM-2 (setting [4]), 13.9 µM; on NDM-1 (setting [5]), 22.7 µM.

Take `O=c1c(OCC2CCCC2)c(-c2ccc(F)c(F)c2)oc2cc(O)cc(O)c12` [Compound 28]: the IC50 against AmpC is above 50 µM; on KPC-2 (setting [2]), 40.8 µM; at OXA-48 (setting [3]), 9.2 µM; on VIM-2 (setting [4]) it was 7.8 µM; at NDM-1 (setting [5]) it was 21.8 µM.

On to `O=c1c(OCCCC2CCCC2)c(-c2ccc(F)c(F)c2)oc2cc(O)cc(O)c12` [Compound 29], for which the IC50 is above 50 µM on AmpC; 28.3 µM at KPC-2 (setting [2]); 5.5 µM on OXA-48 (setting [3]); 5.1 µM on VIM-2 (setting [4]); 26.7 µM on NDM-1 (setting [5]).

Turning to `O=c1c(OCCC2CCOCC2)c(-c2ccc(F)c(F)c2)oc2cc(O)cc(O)c12` [Compound 30], the IC50 was above 50 µM at AmpC; above 50 µM on KPC-2 (setting [2]); 35.9 µM on OXA-48 (setting [3]); above 100 µM at VIM-2 (setting [4]); above 50 µM at NDM-1 (setting [5]).

Consider `O=c1c(OCCC2CCNCC2)c(-c2ccc(F)c(F)c2)oc2cc(O)cc(O)c12` [Compound 31], for which the IC50 against AmpC is above 50 µM; at KPC-2 (setting [2]), above 50 µM; on OXA-48 (setting [3]), above 100 µM; on VIM-2 (setting [4]), above 100 µM; on NDM-1 (setting [5]), above 50 µM.
